Entries after “also recorded” stand apart in the source; their conditions may differ. Read-outs that look alike come from different tables or passages of the source.
Columns and labels:
RCC-2 cells = assay: Modulation of intrinsic drug resistance, RCC-2; type: cell-based, rat; details: IC50 drug alone / IC50 drug + modulator, at nontoxic concentration limit
Description: (§1) Mid-exponential cultures were used for all assays. The RCC-2 and RCC-5 cell lines were seeded into 24-well plates at 2×10^4 cells/well and allowed to attach to the substratum for 16-18 h prior to treatment. The S180 cell lines were seeded into culture tubes at 1×10^5 cells/ml and treated immediately. Cytotoxicity was determined by quantitation of population growth after 72 h incubation by electronic particle counter (Coulter Electronics, Hialeah, Fla.). The human tumor cell lines were used in a clonogenic assay for cytotoxicity. Cells were seeded at 300 cells/dish, incubated overnight and then treated. Colonies were scored 7-11 days later. In all assays of analog modulation of drug sensitivity, the analog was added minutes prior to the addition of cytotoxic drug.
(§2) *calculated as the IC50 of the drug alone divided by the IC50 o
(§3) the [drug modulator] combination. Data are presented from tretments with
(§4) the nontoxic concentration limit of each analog as noted.

[1] = tested on: S180 MDR cell strains A3 and A10; assay: Modulation of acquired drug resistance in the S180 MDR cell strains A3 and A10; type: cell-based, murine
Description: as §1
(§5) To evaluate the ability of vindoline and the two diastereoisomeric VBL analogs to modulate the MDR phenotype (acquired resistance) of the A3 and A10 cell stains, we determined the concentration of compound required to restore drug sensitivities to parental levels. This was done by exposing the MDR cell line to a concentration range of modulator in the presence VBL, VCR and ADM at the respective IC70s of the parental cell line. The cytotoxicity curves for A3 and A10 cells, shown in FIG. 5, are distinctive among the three vinca alkaloids examined. In each cell line, there was a minimum concentration of modulator that elicited 70% growth inhibition for each drug - i.e. the reversing concentration.
FIG. 5 represents the modulation of multidrug resistance in the MDR cell strains by the vinca alkaloids. Vindoline (A), vincovaline (B), or the analog C-20'-deoxy vincovaline (C) was added, at various concentrations, to A3 (closed symbols) or A10 (opened symbols) cell cultures containing the parental IC70 of each drug: 2.0×10^-7 M. ADM (circles: 1.5×10^-8 M VBL (triangles); and 4.5×10^-8 M; VCR (squares). Population growth was determined 72 hours later.
FIG. 6 represents the relationship between cellular drug resistance level and the minimal modulator concentration required for complete reversal of drug resistance. The drugs examined were ADM (o), VBL (Δ), and VCR (.quadrature.). The amount (concentration) of modulator, necessary to reverse each level of drug resistance contained in the A3 and A10 cell lines, was determined from data such as those of FIG. 5. The values presented were averaged from duplicate samples of two separate experiments, S.D.<15% of the mean. The arrows denote the non-toxic concentration limit for the modulator; in the case of Vincovaline this value is dependent on the MDR cell strain, 2×10^-5 M, A3; 5×10^-5 M. A10.
FIG. 11 represents the modulation of multidrug resistance in the S180 MDR cell strains A3 and A10. The cellular drug resistance level is plotted against the minimal concentration of C-20'-deoxy deethyl vincovaline required for the complete reversal of drug resistance to ADM (o), VBL (Δ), and VCR (.quadrature.). In the case of high level ADM resistance […], the sensitivity of the cells was restored to 80% of the parental value. The arrow denotes the non-toxic concentration limit of the analog.

[2] = Inhibition of population growth (cytotoxicity), S180 sarcoma, parental; type: cell-based, mouse; details: mouse, s180 cells; S180; Table III; read-out: Modulator concentration (nontoxic concentration limit of the analog)
From the text: (§6) The analogs were examined in a panel of tumor cell lines of both intrinsic and acquired drug resistance, as described in Table 1. The rat colon adenocarcinoma cell lines RCC-2 and RCC-5 (ref. 13) were maintained in Ham's F12 medium supplemented with 5% heat-inactivated, fetal bovine serum (Sterile Systems. Hyclone, Logan, Utah). The two rat colon cancer cell lines differ in their degree of cellular differentiation; whereas the RCC-2 cell line is undifferentiated, the RCC-5 cell line is highly mucinous. The human epidermoid carcinoma cell line KB-3-1 and its MDR variant KB-Vl, selected by VBL treatment (ref. 14; courtesy of M. Gottesman. National Cancer Institute), was maintained in DMEM medium supplemented with 10%, heat-inactivated, fetal bovine serum. The murine sarcoma cell line […] and its MDR strains A3 and A10 selected by ADM treatment (ref. 15; courtesy of T. Tritton, Dept. Pharmacology, Univ. Vermont). were maintained in DMEM medium supplemented with 10% heat-inactivated, horse serum (Hazelton Biolog. Lenexa, Kans.). Stock cultures were subcultured twice weekly upon reaching the late exponential phase of population growth: population doubling times were 18-24 h. Antibiotics were not used in stock or experimental cultures. The MDR cell strains were grown in drug-free media for 48 h prior to experimental use.
as §1

[3] = tested on: parental cell lines (S180, RCC-2, RCC-5); assay: Modulation of intrinsic resistance in the parental cell lines (S180, RCC-2, RCC-5); type: cell-based, mouse, rat
Description: as §1, §2, §3, §4

[4] = tested on: S180/MDR cell system and rat colon cancer cell lines; assay: Cytotoxicity in the S180/MDR cell system and the rat colon cancer cell lines; type: cell-based, mouse; details: S-180, 72 h
From the text: as §6, §1

RCC-5 cells = assay: Modulation of intrinsic drug resistance, RCC-5; type: cell-based, rat; details: RCC-5; IC50 drug alone / IC50 drug + modulator, at nontoxic concentration limit
Description: as §1, §2, §3, §4
FIG. 9 represents the modulation of VCR sensitivity in the RCC-12 (A) and RCC-5 (B) cell lines by the analog C-20'-deoxy deethyl vincovaline. Population growth was determined after 72 hours incubation in the absence (o), or presence of 10 μM (o), 20 μM (Δ), or 50 μM of analog. Data presented are from a typical experiment.

S180/A3 cells = assay: Modulator potency in MDR cells: reversal of acquired resistance, S180/A3; type: cell-based, murine
Description: as §1, §5
(§7) *The minimal concentration of modulator required to restore the drug
(§8) sensitivity of S180/MDR cell strains to that of parental S180 cells. Data
(§9) are the averages of 2-3 separate experiments, S.D. ≤20%.

S180 cells, parental = assay: Modulation of intrinsic drug resistance, parental S180; type: cell-based, murine; details: for modulation of sensitivity of parental S180 cells to VBL, VCR and ADM (in words): all three drugs
Description: as §1
The ability of the compounds to modulate drug sensitivity in parental cells was studied over a range of concentrations of each compound, from 10^-6 M to the non-toxic (IC10-20) or solubility limit. […] From such experiments, we determined a sensitivity index derived from the IC50 of the drug without modulator treatment divided by the drug IC50 at each concentration of modulator.
When the sensitivity index for each drug, VBL, VCR and ADM is plotted versus the modulator concentration (FIG. 4), we can compare the relative potencies of the compounds as modulators of drug toxicity to the parental S180 cells.
as §2, §3
FIG. 4 represents the potency of the vinca alkaloid compounds as modulators of drug sensitivity in S180 cells. The enhancement of sensitivity was calculated as the sensitivity index=IC50 of the drug alone divided by the IC50 of the drug+modulator. The IC50s for ADM (o) VBL (Δ), or VCR (.quadrature.) were determined over a concentration range of each modulator from data such as those depicted in FIG. 3. The values presented were averaged from duplicate samples of two separate experiments, S.D. <15% of the mean.

[5] = Inhibition of population growth (cytotoxicity), rat colon adenocarcinoma RCC-5; type: cell-based; details: rat, rcc-5 cells; RCC-5; Table III; read-out: Modulator concentration (nontoxic concentration limit of the analog)
From the text: as §6, §1

[6] = Inhibition of population growth (cytotoxicity), rat colon adenocarcinoma RCC-2; type: cell-based; details: rat, rcc-2 cells; RCC-2; Table III; read-out: Modulator concentration (nontoxic concentration limit of the analog)
From the text: as §6, §1

S180/A10 cells = assay: Modulator potency in MDR cells: reversal of acquired resistance, S180/A10; type: cell-based, murine
Description: as §1, §5, §7, §8, §9

[7] = tested on: S180 cell system (S180, A3, A10); assay: Inherent cytotoxicity in the S180 cell system (S180, A3, A10); type: cell-based, murine
From the text: as §6, §1
FIG. 2 represents the toxicity of the vinca alkaloid compounds to population growth. Vindoline, vincovaline or the analog, C-20'-deoxy vincovaline was added, at various concentrations, to S180 (.cndot.), A3 (o), or A10 (Δ) cell cultures. The population cell number was determined 72 hours later.

[8] = S180, IC50 drug alone / IC50 drug + modulator, at nontoxic concentration limit

## CCC1CC2CN(CCc3c([nH]c4ccccc34)C(C(=O)OC)(c3cc4c(cc3OC)N(C)C3C(O)(C(=O)OC)C(OC(C)=O)C5(CC)C=CCN6CCC43C65)C2)C1 (stereo not drawn) [analog n° 353, C-14'-epi-C-20'-deoxy-VBL]
RCC-2 cells
  Maximum sensitization of parental cells by modulator, drug ADM: 2.1
  Maximum sensitization of parental cells by modulator, drug VBL: 1.8
  Maximum sensitization of parental cells by modulator, drug VCR: 7.3
[1]; VBL, VCR and ADM
  range of resistance levels over which parental sensitivity was restored: 3-90 fold
[2]
  MNTC at 72 h: 40 µM
[3]; ADM, VCR
  modulation of intrinsic cellular resistance to ADM and/or VCR (in words): modulated intrinsic cellular resistance to ADM and/or VCR
[3]; VBL
  effect on the sensitivity of parental cells to VBL (in words): less effect on the sensitivity of parental cells to VBL
[3]; VCR
  enhancement of VCR cytotoxicity in the parental cell lines: 7-18 fold
[4]
  IC50: ≥ 5 µM
RCC-5 cells
  Maximum sensitization of parental cells by modulator, drug ADM: 6.4
  Maximum sensitization of parental cells by modulator, drug VBL: 1.6
  Maximum sensitization of parental cells by modulator, drug VCR: 3.5
S180/A3 cells; ADM, drug resistance level 15
  Modulator potency in MDR cells (minimal concentration restoring parental drug sensitivity), ADM: 35. μM
S180/A3 cells; VBL, drug resistance level 3
  Modulator potency in MDR cells (minimal concentration restoring parental drug sensitivity), VBL: 4.0 µM
S180/A3 cells; VCR, drug resistance level 7
  Modulator potency in MDR cells (minimal concentration restoring parental drug sensitivity), VCR: 4.0 µM
S180 cells, parental; [8]
  Maximum sensitization of parental cells by modulator, drug ADM: 4.0
  Maximum sensitization of parental cells by modulator, drug VBL: 1.4
  Maximum sensitization of parental cells by modulator, drug VCR: 7.0
[5]
  MNTC at 72 h: 10 µM
[6]
  MNTC at 72 h: 10 µM
S180/A10 cells; ADM, 90-fold resistance, A10
  reversal of high level ADM resistance: 80%
S180/A10 cells; ADM, drug resistance level 90, #: significant (>50%) reversal at the maximum nontoxic concentration
  Modulator potency in MDR cells, ADM (value marked #): 40. μM
S180/A10 cells; VBL, drug resistance level 10
  Modulator potency in MDR cells (minimal concentration restoring parental drug sensitivity), VBL: 10.0 µM
S180/A10 cells; VCR, drug resistance level 17
  Modulator potency in MDR cells (minimal concentration restoring parental drug sensitivity), VCR: 13.0 µM

## CCC12C=CCN3CC[C@@]4(c5ccc(OC)cc5N(C)[C@H]4[C@@](O)(C(=O)OC)[C@@H]1OC(C)=O)[C@@H]32 (some centres unmarked) [vindoline, reference compound]
[1]; A3 and A10
  modulation of cellular resistance to VBL, VCR and ADM in MDR cell strains (in words): modulators of cellular resistance to VBL, VCR and ADM
[1]; A3 and A10, VBL, VCR, ADM
  relation of reversing concentration to degree of drug resistance (in words): This correllation was not observed
[7]
  inherent cytotoxicity / resistance profile (in words): equitoxic to parental and MDR cell lines
[7]; Mus musculus, S-180, S180 parental and MDR cell lines, read-out: IC50 (inhibition of cell growth)
  IC50: 40 µM
[7]; S180, A3, A10
  inherent cytotoxicity / resistance profile (in words): inhibited the growth of the parental and MDR cell strains with a similar dependence on concentration
S180 cells, parental
  modulation of sensitivity of parental S180 cells to VBL, VCR and ADM (in words): sensitized S180 cells to all three drugs with a similar dependence on its concentration; also recorded: sensitized the parental S180 cells to all three drugs
S180 cells, parental; listed as Vindoline
  modulation of sensitivity of parental S180 cells to VBL, VCR and ADM (in words): no evidence of selective modulation
S180/A10 cells; A10 cells, 90 fold ADM resistance
  reversal of high level ADM resistance (in words): limited in this activity by their own cytoxicity in the MDR cell lines

— US5369111A, “Modulator agent and use thereof” (University of Vermont, priority 1992, dated 1994)
